Values of other authors, collected in US20060024806A1, “Mycolactone locus: an assembly line for producing novel polyketides, therapeutic and prophylactic uses” (priority 2003, published 2006).

Tested on: guinea pig model of the disease
Conditions: purified mycolactone injected subcutaneously

SMILES: CC(=C\C=C\C(C)=C\[C@H](O)[C@@H](O)C[C@H](C)O)/C=C(C)/C=C/C(=O)O[C@H]1CCCC(=O)O[C@@H]([C@@H](C)C/C(C)=C/[C@@H](C)[C@H](O)C[C@@H](C)O)C/C=C(\C)C[C@@H]1C [mycolactone]
- pathology after injection: reproduces the natural pathology
